Laboratory results: patent publication US12662674B2, “RNA nanoparticle for liver cancer treatment” (OHIO STATE INNOVATION FOUNDATION, priority 2019, dated 2026)

System: HepG2 cells
Assay: HSA synergy modeling of cell viability
Conditions: HSA model, Combenefit; FIG. 17C: 6WJ/HTL/miR122 and 6WJ/HTL/PTX nanoparticles
Description: To study the synergy between miR122 and PTX in cytotoxicity induction, an MTT cell viability assay was first performed. […] Cell viability was used as an indicator to quantify the correlation of synergy between miR122 and PTX using Highest Single Agent (HSA) synergy modeling. The data was processed and quantified using Combenefit software to obtain the HSA synergy score between miR122 and PTX (FIG. 17C). […] The number represented the co-efficiency of synergy.
Cell viability was studied following MTT protocol in cytotoxicity assay. The result was presented by Prism 8.0 (Graph Pad). The viability result was entered into HSA synergy modeling by Combenefit and plotted by Prism 8.0.

Q: Which “concentration of highest synergy in cytotoxic induction” value does the source give for `CC(=O)O[C@H]1C(=O)[C@@]2(C)[C@H]([C@H](OC(=O)c3ccccc3)[C@]3(O)C[C@H](OC(=O)[C@H](O)[C@@H](NC(=O)c4ccccc4)c4ccccc4)C(C)=C1C3(C)C)[C@]1(OC(C)=O)CO[C@@H]1C[C@@H]2O` [PTX, Paclitaxel] here?
A: 3.2 µM
